For test [1], the target named is MALT1-GS-Ub (6-His-hMALT-1 residues 339-715 fused to ubiquitin) (Homo sapiens, UniProt Q9UDY8). The test can be described thus: biochemical.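 Note: in vitro MALT1 protease assay: enzyme preincubated with compound 30 min at room temperature, then cleavage of fluorogenic Ac-LVSR-AMC substrate (100 µM) followed by fluorescence every 15 min.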
Another test deals with T1, FL hMALT1 enzyme (Homo sapiens, UniProt Q9UDY8).
T1 sequence (Q9UDY8 1-824): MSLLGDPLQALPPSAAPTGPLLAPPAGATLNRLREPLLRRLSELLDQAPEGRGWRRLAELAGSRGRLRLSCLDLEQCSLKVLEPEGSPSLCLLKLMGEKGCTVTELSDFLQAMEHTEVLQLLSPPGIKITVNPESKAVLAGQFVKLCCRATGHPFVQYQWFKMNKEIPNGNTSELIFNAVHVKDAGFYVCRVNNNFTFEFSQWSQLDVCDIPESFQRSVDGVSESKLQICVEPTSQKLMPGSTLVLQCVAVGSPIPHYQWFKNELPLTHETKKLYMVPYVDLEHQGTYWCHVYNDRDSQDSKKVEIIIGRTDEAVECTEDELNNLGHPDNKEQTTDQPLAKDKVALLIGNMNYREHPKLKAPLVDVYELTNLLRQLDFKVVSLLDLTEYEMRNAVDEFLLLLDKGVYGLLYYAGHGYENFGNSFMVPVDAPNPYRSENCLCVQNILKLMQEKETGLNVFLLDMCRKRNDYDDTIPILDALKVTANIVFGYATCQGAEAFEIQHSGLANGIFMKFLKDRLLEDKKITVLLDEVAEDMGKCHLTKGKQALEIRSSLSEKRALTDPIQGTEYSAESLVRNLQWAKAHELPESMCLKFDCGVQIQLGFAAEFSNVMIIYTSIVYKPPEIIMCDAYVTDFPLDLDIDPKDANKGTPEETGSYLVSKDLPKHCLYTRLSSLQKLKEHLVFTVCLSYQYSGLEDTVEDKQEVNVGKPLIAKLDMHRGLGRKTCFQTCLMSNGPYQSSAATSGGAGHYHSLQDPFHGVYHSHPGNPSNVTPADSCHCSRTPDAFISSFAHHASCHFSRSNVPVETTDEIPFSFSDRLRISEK
Put plainly: biochemical.

Test [2] has as its system IL-2 release from stimulated Jurkat cells. Put plainly: Human IL-2 Release Phenotypic Assay (Assay 3). Particulars: Jurkat cells (clone E6-1), 200 ng/mL PMA + 300 ng/mL ionomycin, IL-2 by ELISA. The format is cell-based. The method, boiled down: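 IC50 values were fitted by 4-parameter non-linear regression to IL-2 release from Jurkat E6-1 cells. Those cells were stimulated for 48 h with PMA (200 ng/mL) plus ionomycin (300 ng/mL) after a 30-min compound pre-incubation at half-log doses in 0.5% DMSO. Cells had been plated at 50 000/well overnight at 37° C.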

The structures appear in SMILES notation. Where only a bound is given, the exact number is not on record here.

For orientation: IC50 means the midpoint of a concentration-inhibition curve.

Chain of MALT1-GS-Ub (6-His-hMALT-1 residues 339-715 fused to ubiquitin) (Q9UDY8 with tags, fused parts or gaps limits assumed): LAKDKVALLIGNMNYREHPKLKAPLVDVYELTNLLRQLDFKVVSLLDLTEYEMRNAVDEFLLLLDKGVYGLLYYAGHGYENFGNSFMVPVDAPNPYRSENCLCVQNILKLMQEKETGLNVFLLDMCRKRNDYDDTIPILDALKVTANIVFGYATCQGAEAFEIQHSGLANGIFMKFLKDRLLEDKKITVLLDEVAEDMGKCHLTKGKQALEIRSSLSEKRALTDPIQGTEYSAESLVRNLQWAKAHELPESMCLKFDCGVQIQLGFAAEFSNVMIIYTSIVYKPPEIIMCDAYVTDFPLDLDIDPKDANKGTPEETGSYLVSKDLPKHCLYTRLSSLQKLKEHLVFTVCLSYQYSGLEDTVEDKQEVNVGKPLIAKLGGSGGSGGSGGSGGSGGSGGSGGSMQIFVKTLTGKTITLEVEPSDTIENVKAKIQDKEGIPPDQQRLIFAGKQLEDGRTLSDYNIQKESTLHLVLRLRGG

In the case of `CN(C(=O)c1cc[nH]c(=O)c1)C(c1ccc(NC2Cc3ccccc3C2(C)C)cn1)C(F)(F)F` (single isomer, unassigned) [Example 99, N-(1-(5-((1,1-Dimethyl-2,3-dihydro-1H-inden-2-yl)amino)pyridin-2-yl)-2,2,2-trifluoroethyl)-N-methyl-2-oxo-1,2-dihydropyridine-4-carboxamide], the results for the half-inhibitory concentration (IC50) (in test [1]; on FL hMALT1 enzyme) were 26000 nM and more than 3000 nM, respectively.
The matching figures for `CN1CC(C(=O)N(C)C(c2ccc(NC3Cc4ccccc4C3(C)C)cn2)C(F)(F)F)C1` (single isomer, unassigned) [Example 90, N-(1-(5-((1,1-Dimethyl-2,3-dihydro-1H-inden-2-yl)amino)pyridin-2-yl)-2,2,2-trifluoroethyl)-N,1-dimethylazetidine-3-carboxamide]: 81000 nM and more than 3000 nM.
In turn, `CN(C(=O)c1cnon1)[C@@H](c1ccc(NC2Cc3ccccc3C2(C)C)cc1)C(F)(F)F` (single isomer, unassigned) [Example 51] showed an IC50 in test [1] of 930 nM.
Regarding `CN(C(=O)OC1CN(C(=O)OC(C)(C)C)C1)[C@@H](c1ccc(NC2Cc3ccccc3C2(C)C)cc1)C(F)(F)F` (stereo partly drawn) [Example 59, tert-Butyl 3-((((1S)-1-(4-((1,1-dimethyl-2,3-dihydro-1H-inden-2-yl)amino)phenyl)-2,2,2-trifluoroethyl)(methyl)carbamoyl)oxy)azetidine-1-carboxylate], half-maximal inhibition in test [1] (IC50) was put at 2710 nM.
For `CN(C(=O)[C@@H]1CNC(=O)C1)[C@@H](c1ccc(NC2Cc3ccc(Cl)c(F)c3C2)cn1)C(F)(F)F` (single isomer, unassigned) [Example 317], the 50% inhibitory concentration (IC50) is 113 nM in test [2] (Homo sapiens, Jurkat, 48 h) and 72 nM on FL hMALT1 enzyme.
With `CN(C(=O)C12CC(NS(C)(=O)=O)(C1)C2)[C@@H](c1ccc(NC2Cc3ccc(Cl)c(Cl)c3C2)cn1)C(F)(F)F` (single isomer, unassigned) [Example 323], the IC50 in test [2] (Homo sapiens, Jurkat, 48 h) amounted to 100 nM; on FL hMALT1 enzyme, 14 nM.
For the compound `CN(C(=O)C1CCS(=O)(=O)CC1)[C@@H](c1ccc(NC2Cc3cccc(C(F)(F)F)c3C2)nc1)C(F)(F)F` (single isomer, unassigned) [Example 281], the IC50 is 460 nM in test [2] (Homo sapiens, Jurkat, 48 h) and 14 nM on FL hMALT1 enzyme.
`CN(C(=O)C1CNC(=O)CO1)[C@@H](c1ccc(NC2Cc3ccccc3C2(C)C)cn1)C(F)(F)F` (single isomer, unassigned) [Example 134]: the IC50 in test [2] (48 hours) is 710 nM; against FL hMALT1 enzyme it was 160 nM.
The matching figures for `CN(C(=O)[C@H]1C[C@H](N(C)C)C1)[C@@H](c1ccc(NC2Cc3ccccc3C2(C)C)nc1)C(F)(F)F` (single isomer, unassigned) [Example 115]: 510 nM and 240 nM.
The matching figures for `CN(C(=O)C1CNC(=O)O1)[C@@H](c1ccc(N[C@@H]2Cc3ccccc3C2(C)C)cn1)C(F)(F)F` (single isomer, unassigned) [Example 108]: 900 nM and 150 nM.
Consider `CN(C(=O)C1CN(C(=O)C2COC2)C1)[C@@H](c1ccc(NC2Cc3ccc(Cl)c(F)c3C2)cn1)C(F)(F)F` (single isomer, unassigned) [Example 371], for which the 50% inhibitory concentration (IC50) stood at 220 nM in test [2] (Homo sapiens, Jurkat, 48 h) and 75 nM against FL hMALT1 enzyme.
With `CN(C(=O)[C@H]1CCC(=O)NC1)[C@@H](c1ccc(NC2Cc3ccc(Cl)c(F)c3C2)cn1)C(F)(F)F` (single isomer, unassigned) [Example 337], the 50% inhibitory concentration (IC50) was 170 nM in test [2] (Homo sapiens, Jurkat, 48 h) and 51 nM against FL hMALT1 enzyme.
The matching figures for `CN(C(=O)C1CCS(=O)(=O)CC1)[C@@H](c1ccc(NC2Cc3ccc(Cl)c(C(F)(F)F)c3C2)cn1)C(F)(F)F` (single isomer, unassigned) [Example 312]: 350 nM and 15 nM.
As to `CC(=O)N1CC(C(=O)N(C)[C@@H](c2ccc(NC3Cc4ccc(Cl)c(Cl)c4C3)cn2)C(F)(F)F)C1` (single isomer, unassigned) [Example 377], the 50% inhibitory concentration (IC50) in test [2] (Homo sapiens, Jurkat, 48 h) was 130 nM; against FL hMALT1 enzyme it was 40 nM.
The matching figures for `CN(C(=O)C1CCS(=O)(=O)CC1)[C@@H](c1ccc(NC2Cc3ccc(Cl)c(F)c3C2)cn1)C(F)(F)F` (single isomer, unassigned) [Example 277]: 200 nM and 43 nM.
Turning to `CN(C(=O)C1CCCNC1)[C@@H](c1ccc(NC2Cc3ccccc3C2(C)C)cn1)C(F)(F)F` (single isomer, unassigned) [Example 126], the IC50 came to 700 nM in test [2] (48 hours) and 120 nM against FL hMALT1 enzyme.
With `CN(C(=O)C1CC2(CCC(=O)N2)C1)[C@@H](c1ccc(NC2Cc3ccc(Cl)c(Cl)c3C2)cn1)C(F)(F)F` (single isomer, unassigned) [Example 341], the IC50 in test [2] (48 hours) came out at 100 nM; at FL hMALT1 enzyme it was 15 nM.
For the compound `CN(C(=O)C1CCS(=O)(=O)CC1)[C@@H](c1ccc(NC2Cc3ccc(Br)cc3C2)cn1)C(F)(F)F` (single isomer, unassigned) [Example 284], the IC50 turned out to be 490 nM in test [2] (Homo sapiens, Jurkat, 48 h) and 85 nM against FL hMALT1 enzyme.
Consider `CNC(=O)N1CC(C(=O)N(C)[C@@H](c2ccc(NC3Cc4ccc(Cl)c(Cl)c4C3)cn2)C(F)(F)F)C1` (single isomer, unassigned) [Example 335], for which the IC50 worked out at 42 nM in test [2] (Homo sapiens, Jurkat, 48 h) and 14 nM against FL hMALT1 enzyme.
Take `CN(C(=O)C1CCC(=O)NC1)[C@@H](c1ccc(NC2Cc3ccccc3C2(C)C)cn1)C(F)(F)F` (single isomer, unassigned) [Example 105]: the results for the IC50 (in test [2] (48 hours); against FL hMALT1 enzyme) were 230 nM and 36 nM, respectively.
Take `CNC(=O)N1CC(C(=O)N(C)[C@@H](c2ccc(NC3Cc4ccccc4C3(C)C)cn2)C(F)(F)F)C1` (single isomer, unassigned) [Example 227]: the concentration for half-maximal inhibition (IC50) in test [2] (48 hours) came to 99 nM; on FL hMALT1 enzyme, 18 nM.
`CN(C(=O)C1CCNC(=O)C1)[C@@H](c1ccc(NC2Cc3ccccc3C2(C)C)cn1)C(F)(F)F` (single isomer, unassigned) [Example 116]: the half-maximal inhibitory concentration (IC50) in test [2] (48 hours) turned out to be 510 nM; against FL hMALT1 enzyme, 68 nM.
Taken in the same sequence, the figures for `CN(C(=O)C1CC2(CCC(=O)N2)C1)[C@@H](c1ccc(NC2Cc3ccc(Cl)c(Cl)c3C2)cn1)C(F)(F)F` (single isomer, unassigned) [Example 343] were 360 nM and 77 nM.
In the case of `CN1CC(C(=O)N(C)[C@@H](c2ccc(N[C@H]3Cc4ccccc4C3(C)C)cn2)C(F)(F)F)CCC1=O` (single isomer, unassigned) [Example 252], the IC50 in test [2] (Homo sapiens, Jurkat, 48 h) worked out at 590 nM; on FL hMALT1 enzyme it was 71 nM.
Consider `CN(C(=O)C1CCC(=O)NC1)[C@@H](c1ccc(NC2Cc3ccccc3C2(C)C)cn1)C(F)(F)F` (single isomer, unassigned) [Example 104], for which the half-maximal inhibitory concentration (IC50) is 2700 nM in test [2] (48 hours) and 140 nM against FL hMALT1 enzyme.
As for `CCN(C(=O)C1CCS(=O)(=O)CC1)[C@@H](c1ccc(NC2Cc3ccccc3C2(C)C)cn1)C(F)(F)F` (single isomer, unassigned) [Example 189], the values for the 50% inhibitory concentration (IC50) (in test [2] (48 hours); against FL hMALT1 enzyme) were 3000 nM and 91 nM, respectively.
For the compound `CN(C(=O)C1CNC(=O)CO1)[C@@H](c1ccc(NC2Cc3ccccc3C2(C)C)cn1)C(F)(F)F` (single isomer, unassigned) [Example 137], the IC50 is 1250 nM in test [2] (48 hours) and 150 nM at FL hMALT1 enzyme.
The matching figures for `CN(C(=O)C1CCS(=O)(=O)CC1)[C@@H](c1ccc(NC2Cc3ccc(F)c(F)c3C2)cn1)C(F)(F)F` (single isomer, unassigned) [Example 262]: 7700 nM and 2680 nM.
Taken in the same sequence, the figures for `CN(C(=O)C1C2CS(=O)(=O)CC21)[C@@H](c1ccc(NC2Cc3ccccc3C2(C)C)cn1)C(F)(F)F` (single isomer, unassigned) [Example 215] were 630 nM and 88 nM.
In the case of `CN(C(=O)C1CC2(CNC(=O)OC2)C1)[C@@H](c1ccc(NC2Cc3ccccc3C2(C)C)nc1)C(F)(F)F` (single isomer, unassigned) [Example 174], the IC50 was 890 nM in test [2] (Homo sapiens, Jurkat, 48 h) and 70 nM against FL hMALT1 enzyme.
The matching figures for `CC(=O)N1CCC12CC(C(=O)N(C)[C@@H](c1ccc(NC3Cc4ccccc4C3(C)C)cn1)C(F)(F)F)C2` (single isomer, unassigned) [Example 235]: 1000 nM and 60 nM.
The matching figures for `CN(C(=O)C1CCNCC1)[C@@H](c1ccc(NC2Cc3ccccc3C2(C)C)cn1)C(F)(F)F` (single isomer, unassigned) [Example 146]: 480 nM and 110 nM.

(Values after patent US20260184687A1, “DIHYDROINDENE DERIVATIVES AS MALT1 INHIBITORS” (C4X Discovery Limited, priority 2022, published 2026).)
